Measurements from US20130079309A1, “Method Of Treating Acute Lung Injury Using Sphingosine 1 Phosphate Analogs Or Sphingosine 1 Phosphate Receptor Agonists” (The Board of Trustees of the University of Illinois, priority 2010, published 2013).
Residues, ends and D or L forms follow the SMILES beside them. *: point of attachment. Cbz = O=C(OCc1ccccc1)*

Experiments:
HPAEC [1] = assay: Transendothelial electrical resistance (TER) of HPAEC; type: cell-based, human; conditions: for maximal TER change: 10 μM; for maximal TER change / maximal percentage TER change compared with S1P and FTY720: within 60 min
Experimental: Cells were grown at 37° C. in a 5% CO2 incubator, and passages 6 to 9 were used for experiments. Media were changed 1 day before experimentation.

ERK = assay: Western blotting of HPAEC lysates for phospho-ERK; type: cell-based, human; conditions: 5 min
Experimental: (§1) After treatment as outlined for individual experiments, confluent HPAEC were lysed for Western blotting with phospho-MLC, pan-MLC, phospho-ERK, or pan-ERK antibodies. […] Membranes were then immunoblotted with primary antibodies (1:500-1000, 4° C., overnight) followed by secondary antibodies conjugated to horseradish peroxidase (1:5000, room temperature, 30 min) and detected with enhanced chemiluminescence (Pierce ECL or SuperSignal West Dura; Pierce Biotechnology, Rockford, Ill.) on Biomax MR film (Carestream Health, Rochester, N.Y.).

HPAEC [2] = assay: Pharmacologic inhibitor effects on barrier enhancement (TER); conditions: 1 μM agonist, 60 min; for % Inhibition of Maximal TER Response (of Agonist-Only Control), PTX: 2-h preincubation 100 ng/ml PTX; for % Inhibition of Maximal TER Response (of Agonist-Only Control), MβCD: 2-h preincubation 2 mM MβCD; for % Inhibition of Maximal TER Response (of Agonist-Only Control), Gen: 30-min preincubation 200 μM genistein
Experimental: Endothelial cells were grown to confluence in polycarbonate wells containing evaporated gold microelectrodes (surface area, 10^−3 cm^2) in series with a large gold counter electrode (1 cm^2) connected to a phase-sensitive lock-in amplifier. Current was applied across the electrodes by a 4,000-Hz AC voltage source with amplitude of 1 V in series with a 1 MΩ resistance to approximate a constant current source (˜1 μA). The in-phase and out-of-phase voltages between the electrodes were monitored in real time with the lock-in amplifier and subsequently converted to scalar measurements of transendothelial impedance, of which resistance was the primary focus. TER was monitored for 30 minutes to establish a baseline resistance (R0) which, for bovine pulmonary endothelium, was typically between 8 to 12×10^3Ω (wells with R0<7×10^3Ω were rejected). As cells adhere and spread out on the microelectrode, TER increases (maximal at confluence), whereas cell retraction, rounding, or loss of adhesion is reflected by a decrease in TER. These measurements provide a highly sensitive biophysical assay that indicates the state of cell shape and focal adhesion. Values from each microelectrode were pooled at discrete time points and plotted versus time as the mean±SE of the mean. TER values from each microelectrode were pooled as discrete time points and plotted versus time as the mean±S.E.M.
In this experiment, confluent HPAEC were plated on gold microelectrodes and then stimulated with 1 μM S1P, FTY720, 1R, 1S, 2R, or 2S after either a 2-h preincubation with 100 ng/ml PTX, 30-min preincubation with 200 μM genistein (Gen), or 2-h preincubation with 2 mM MβCD or their respective vehicle controls. Data were pooled from multiple TER experiments (4-10 independent experiments per condition) and expressed as percentage inhibition of maximal barrier enhancement at 60 min relative to agonist-only control.

HPAEC [3] = assay: Transwell transendothelial permeability assay (FITC-dextran); type: cell-based, human; conditions: 1 μM (3R, 3S 25 μM), 1 h before FITC-dextran, 2-h incubation
Experimental: As a complementary approach to further characterize the barrier-protective effects of these FTY720 analogs in vitro, the permeability of FITC-labeled dextran across the pulmonary EC monolayer was assayed in response to treatment by the FTY720 analogs. […] Data were normalized to unstimulated control. n=3 independent experiments per condition; *, p<0.01 versus unstimulated condition (see FIG. 26).

MLC = assay: Western blotting of HPAEC lysates for phospho-MLC; type: cell-based, human; conditions: 5 min
Experimental: as §1

[4] = test system: radiation-induced lung injury (RILI) in C57BL/6 mice; assay: Murine model of RILI: BAL protein, BAL cell counts, BAL cytokines, EBD extravasation, body weight, lung histology; type: in vivo, mouse; conditions: 6 weeks
Experimental: Eight to 10-week-old C57BL/6J mice (Jackson Labs, Bar Harbor, Me.) were used for all studies in accordance with the University of Chicago Institutional Animal Care & Use Committee guidelines.
At the termination of each experiment, animals were euthanized by exsanguination under anesthesia in accordance with institutional guidelines. Both lungs were lavaged with 1.0 mL of Hank's buffered saline solution with the fluid allowed to equilibrate for 10 s before withdrawing. The pulmonary vasculature was perfused clear via the pulmonary artery with sterile phosphate-buffered saline (PBS). Both lungs were excised, weighed, and snap-frozen in liquid nitrogen for subsequent analysis. The BAL fluid collected was centrifuged at 500×g for 20 min at 4° C., and the supernatant was removed and recentrifuged at 12,000×g before snap-freezing. Cell pellets were resuspended in 0.5 mL of red blood cell lysis buffer (ACK Lysing Buffer; BioSource International, Camarillo, Calif.) for 20 min and then repelleted by centrifugation at 2500 rpm for 20 min at 4° C. The supernatant was decanted, and the cell pellet was resuspended in 0.2 mL of PBS for cellular analysis using a standard hemacytometer technique. A total of 300 BAL cells per slide were counted for cell differentials using a Diff-Quick-stained kit (Baxter Diagnostics, McGaw Park, Ill.). BAL protein concentrations were determined by a colorimetric BCA assay. Albumin concentrations in the BAL at 1:1000 and 1:100 dilutions, respectively, were quantitated by ELISA (Bethyl Labs, Montgomery, Tex.). To measure cytokines and chemokines, the BAL fluid was assayed with a Bioplex mouse cytokine kit (Bio-Rad, Hercules, Calif.) in accordance with the manufacturer's instructions.
All other chemicals were analytical or cell-culture grade and were obtained from various commercial sources. Evans Blue dye conjugated to albumin (EBA) was prepared by dissolving EBD to a concentration of 0.5% (5 mg/mL or 5.2 mM) in phosphate-buffered saline (PBS) (Ca^2+-Mg^2+ free; Invitrogen Corporation, Carlsbad, Calif.). To this solution, BSA was added to a final concentration of 4% (40 mg/mL or 0.6 mM), mixed well by stirring with a magnetic bar, allowed to stand for 30 min, and then sterile-filtered through a 0.22-μm syringe filter. The conjugate was stored in small aliquots at −80° C. To prevent cross-contamination, each aliquot was used only once in one animal and then discarded. 4, 6, 8, or 12 weeks after irradiation, the animals were injected with EBA via the jugular vein. At the end of exposure, the pulmonary circulation was flushed and lungs were harvested. Formamide extracts of lungs were prepared, with the initial modification that the homogenates were centrifuged at 12,000×g. Centrifugation at this relative centrifugal force (RCF) produced a compact pellet that allowed accurate measurement of the recovered volumes. Accurate estimation of such volumes is critical for calculating the final tissue dilution factor. Lungs, kidneys, and hearts from mice that were not injected with EBA were similarly extracted, to calculate the tissue-specific correction factors. […] Linear regression equations between absorbance at 740 nm (X) and 620 nm (Y) in tissue extracts of animals untreated with EBA were considered to be the tissue-specific correction factors. […] The EB concentration read in mg/mL was converted to μg/g wet weight of lungs using the dilution factor of the original homogenate as described above.
Eight to 10-week-old C57BL/6J mice (Jackson Labs, Bar Harbor, Me.) were used for all studies in accordance with the University of Chicago Institutional Animal Care & Use Committee guidelines. […] (FIG. 4A). Bronchoalveolar lavage (BAL) was performed as described above. BAL protein concentrations were determined by a colorimetric BCA assay. Albumin concentrations in the BAL at 1:1000 and 1:100 dilutions, respectively, were quantitated by ELISA (Bethyl Labs, Montgomery, Tex.).

[5] = test system: lung vascular leakage in RILI mice; assay: ViSen FMT lung imaging of intravascular probe extravasation in RILI mice; type: in vivo, mouse; conditions: 0.1 mg/kg, 25 Gy, 6 weeks
Experimental: Lung imaging studies were also performed with assessment of RILI-induced extravasation of an intravascular probe.
To assess microvascular changes associated with RILI in real-time, mice were imaged with ViSen FMT 1500 Quantitative Tomography In Vivo Imaging System. Intergisens^750 NIR (ViSen Medicals, Bedford, Mass.) was used as a probe, which targets the vasculature as a selective non-peptide small molecule integrin αvβ3 antagonist and a near-infrared fluorochrome. Mice were injected with probe ([…], IV) at 6 weeks post radiation and imaged 24 hrs later. Probe intensity was quantified using TrueQuant 3D software (VisSen Medicals).

β-arrestin = conditions: 1 μM (SEW2871 10 μM; (S)-FTY720-phosphonate 1, 10, 50 μM), 5 h
Experimental: After another 2 h-incubation with fluorescence substrate, the fluorescence intensity (blue and green channels) were detected and the blue/green emission ratio was used as the activation indicator.

S1P receptor 1 (S1PR1) [6] = target: T1, S1P receptor 1 (S1PR1) (Homo sapiens, UniProt P21453); assay: Ubiquitination of S1PR1 in HPAEC (immunoprecipitation, ubiquitin Ab); conditions: for ubiquitination of S1PR1 at 2 h: 1 μM (SEW2871 10 μM)
Source text: S1PR1 was immunoprecipitated by S1PR1Ab, and ubiquitination of S1PR1 was detected by ubiquitin Ab.

S1P receptor 1 (S1PR1) [7] = target: T1, S1P receptor 1 (S1PR1); assay: S1PR1 protein expression in HPAEC by Western blot; type: cell-based; set-up: Cells were collected and S1PR1 expression level was detected by Western blot; endogenous in cells; host or cells: HPAEC (human pulmonary artery endothelial cells); conditions: for S1PR1 expression level compared to control: 1 μM (SEW2871 10 μM), 4 h
Source text: Cells were collected and S1PR1 expression level was detected by Western blot.

[8] = 0.01 or 0.1 mg/kg i.p. 2×/wk from 1 wk before irradiation (20 Gy)

T1 sequence (P21453 whole entry): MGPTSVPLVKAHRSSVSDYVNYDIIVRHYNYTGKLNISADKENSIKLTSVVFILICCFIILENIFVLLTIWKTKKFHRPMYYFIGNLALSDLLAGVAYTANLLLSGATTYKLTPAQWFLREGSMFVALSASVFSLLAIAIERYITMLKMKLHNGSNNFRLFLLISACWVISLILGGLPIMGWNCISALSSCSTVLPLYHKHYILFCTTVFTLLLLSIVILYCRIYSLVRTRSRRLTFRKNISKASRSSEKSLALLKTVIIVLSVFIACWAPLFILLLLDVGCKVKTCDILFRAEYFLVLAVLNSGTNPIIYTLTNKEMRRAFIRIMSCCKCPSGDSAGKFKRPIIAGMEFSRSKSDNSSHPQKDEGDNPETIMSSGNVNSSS

Compound | maximal TER change (HPAEC [1]) | ERK phosphorylation (ERK) | % Inhibition of Maximal TER Response (of Agonist-Only Control), PTX (HPAEC [2]) | % Inhibition of Maximal TER Response (of Agonist-Only Control), MβCD (HPAEC [2]) | % Inhibition of Maximal TER Response (of Agonist-Only Control), Gen (HPAEC [2]) | activation of β-arrestin (blue/green emission ratio) (β-arrestin) | ubiquitination of S1PR1 at 2 h (S1P receptor 1 (S1PR1) [6]) | S1PR1 expression level compared to control (S1P receptor 1 (S1PR1) [7]) [%] | maximal percentage TER change compared with S1P and FTY720 (HPAEC [1]; 1 μM) | also measured
CCCCCCCCc1ccc(CC[C@](N)(C=CP(=O)(O)O)CO)cc1 [2S, (S)-3-amino-3-(hydroxymethyl)-5-(4-octylphenyl)pent-1-enylphosphonic acid] | somewhat barrier-disruptive | failed to induce phosphorylation | 76.3 (±12.0) % | 95.2 (±1.0) % | 91.6 (±2.4) % |  |  |  |  | 
CCCCCCCCc1ccc(CCC(O)(CN)CCO)cc1 (centres unmarked) [3R, 3-(aminomethyl)-5-(4-octylphenyl)pentane-1,3-diol] |  | did not increase ERK or MLC phosphorylation |  |  |  |  |  |  |  | TER response (tracing) (HPAEC [1]; 1 μM): barrier-disruptive; EC permeability to FITC-dextran vs control EC (HPAEC [3]): increase EC permeability; MLC phosphorylation (MLC): did not increase ERK or MLC phosphorylation
FC(F)(F)c1cccc(-c2noc(-c3cc(-c4ccccc4)c(C(F)(F)F)s3)n2)c1 [SEW2871, 5-[4-phenyl-5-(trifluoromethyl)-2-thienyl]-3-[3-(trifluoromethyl)phenyl]-1,2,4-oxadiazole] |  |  |  |  |  | strongly activated | significant ubiquitination | 30.3 |  | lung histology: inflammatory cell infiltration and interstitial edema induced by radiation ([4]; 0.1 mg/kg i.p. 2×/wk, 25 Gy): to a lesser extent; BAL cell counts vs RILI-challenged controls [4, 8]: dose-dependent protective effect; BAL protein vs RILI-challenged controls [4, 8]: dose-dependent protective effect; radiation-induced probe extravasation (probe intensity), FMT imaging [5]: significant decreases
CC(C)C[C@@H](C=O)NC(=O)[C@H](CC(C)C)NC(=O)[C@H](CC(C)C)NC(=O)OCc1ccccc1 [MG132, reference compound] (Cbz-Leu-Leu-Leu-aldehyde) |  |  |  |  |  |  |  |  |  | S1PR1 expression, MG132 alone (S1P receptor 1 (S1PR1) [7]; 10 μM): did not affect the expression of S1PR1
CCCCCCCCc1ccc(CC[C@](N)(CO)CCP(=O)(O)O)cc1 [1R, (R)-3-amino-3-(hydroxymethyl)-5-(4-octylphenyl)pentylphosphonic acid] | even greater maximal TER elevation | increased phosphorylation of ERK | 79.2 (±5.9) % | 67.0 (±19.7) % | 54.3 (±14.7) % | strongly activated | significant ubiquitination | 47.2 | greater maximal percentage TER change | ubiquitination of S1PR1 at 1 h (S1P receptor 1 (S1PR1) [6]; 1 μM, 1 h): only slight ubiquitination; S1PR1 expression, agonist without MG132 (S1P receptor 1 (S1PR1) [7]; 1 μM, 4 h (FIG. 18)): 66.3%; S1PR1 expression, agonist after MG132 pretreatment (S1P receptor 1 (S1PR1) [7]; MG132 10 μM 2 h, then 1 μM agonist 4 h): 94.2%
CCCCCCCCc1ccc(CC[C@@](N)(C=CP(=O)(O)O)CO)cc1 [2R, (R)-3-amino-3-(hydroxymethyl)-5-(4-octylphenyl)pent-1-enylphosphonic acid] | even greater maximal TER elevation | increased phosphorylation of ERK | 88.1 (±7.8) % | 87.4 (±5.4) % | 41.1 (±12.2) % |  |  |  | greater maximal percentage TER change | 
